Test results reported in patent US20250353820A1, “ANTIVIRAL PYRAZOLOPYRIDINONE COMPOUNDS” (Novartis AG, priority 2019, published 2025).

Biological target: human HSV DNA polymerase UL30 (Human herpesvirus 1 (strain 17) (HHV-1) (Human herpes simplex virus 1), UniProt P04293)
Assay: biochemical
Conditions: 625 pM HSV polymerase, 20 minutes at room temperature; read-out: HSV-polymerase Biochemical IC50

SMILES | IC50 [µM]
Cn1nc(C(=O)NCc2ccc(C#N)cc2)c2c1C(=O)N(CC1(S(=O)(=O)C(C)(C)CN3CCOCC3)CC1)CC2 [Example 61, N-(4-Cyanobenzyl)-1-methyl-6-((1-((2-methyl-1-morpholinopropan-2-yl)sulfonyl)cyclopropyl)methyl)-7-oxo-4,5,6,7-tetrahydro-1H-pyrazolo[3,4-c]pyridine-3-carboxamide] | 0.075
CO[C@@H]1CCN(CC(C)(C)S(=O)(=O)C2(CN3CCc4c(C(=O)NCc5ccc(C#N)cc5)nn(C)c4C3=O)CC2)C1 [Example 62, (R)-N-(4-cyanobenzyl)-6-((1-((1-(3-methoxypyrrolidin-1-yl)-2-methylpropan-2-yl)sulfonyl)cyclopropyl)methyl)-1-methyl-7-oxo-4,5,6,7-tetrahydro-1H-pyrazolo[3,4-c]pyridine-3-carboxamide] | 0.139
Cn1nc(C(=O)NCc2ccc(C#N)cc2)c2c1C(=O)N(CC1(S(=O)(=O)C(C)(C)CN3CC4CC(C3)O4)CC1)CC2 [Example 63, 6-((1-((1-(6-Oxa-3-azabicyclo[3.1.1]heptan-3-yl)-2-methylpropan-2-yl)sulfonyl)cyclopropyl)methyl)-N-(4-cyanobenzyl)-1-methyl-7-oxo-4,5,6,7-tetrahydro-1H-pyrazolo[3,4-c]pyridine-3-carboxamide] | 0.1
Cn1nc(C(=O)NCc2ccc(C#N)cc2)c2c1C(=O)N(CC1(S(=O)(=O)C(C)(C)CN3CC4CC3CO4)CC1)CC2 (centres unmarked) [Example 64, 6-((1-((1-(2-Oxa-5-azabicyclo[2.2.1]heptan-5-yl)-2-methylpropan-2-yl)sulfonyl)cyclopropyl)methyl)-N-(4-cyanobenzyl)-1-methyl-7-oxo-4,5,6,7-tetrahydro-1H-pyrazolo[3,4-c]pyridine-3-carboxamide] | 0.06
Cn1nc(C(=O)NCc2ccc(C#N)cc2)c2c1C(=O)N(CC1(S(=O)(=O)C(C)(C)CN3CC(O)C3)CC1)CC2 [Example 65, N-(4-Cyanobenzyl)-6-((1-((1-(3-hydroxyazetidin-1-yl)-2-methylpropan-2-yl)sulfonyl)cyclopropyl)methyl)-1-methyl-7-oxo-4,5,6,7-tetrahydro-1H-pyrazolo[3,4-c]pyridine-3-carboxamide] | 0.052
COC1CN(CC(C)(C)S(=O)(=O)C2(CN3CCc4c(C(=O)NCc5ccc(C#N)cc5)nn(C)c4C3=O)CC2)C1 [Example 66, N-(4-Cyanobenzyl)-6-((1-((1-(3-methoxyazetidin-1-yl)-2-methylpropan-2-yl)sulfonyl)cyclopropyl)methyl)-1-methyl-7-oxo-4,5,6,7-tetrahydro-1H-pyrazolo[3,4-c]pyridine-3-carboxamide] | 0.05
Cn1nc(C(=O)NCc2ccc(C#N)cc2)c2c1C(=O)N(CC1(S(=O)(=O)C(C)(C)CN3CC4(COC4)C3)CC1)CC2 [Example 67, N-(4-Cyanobenzyl)-1-methyl-6-((1-((2-methyl-1-(2-oxa-6-azaspiro[3.3]heptan-6-yl)propan-2-yl)sulfonyl)cyclopropyl)methyl)-7-oxo-4,5,6,7-tetrahydro-1H-pyrazolo[3,4-c]pyridine-3-carboxamide] | 0.048
Cn1nc(C(=O)NCc2ccc(C#N)cc2)c2c1C(=O)N(CC1(S(=O)(=O)C(C)(C)CN3CCC(O)C3)CC1)CC2 (centres unmarked) [Example 68, N-(4-Cyanobenzyl)-6-((1-((1-(3-hydroxypyrrolidin-1-yl)-2-methylpropan-2-yl)sulfonyl)cyclopropyl)methyl)-1-methyl-7-oxo-4,5,6,7-tetrahydro-1H-pyrazolo[3,4-c]pyridine-3-carboxamide] | 0.021
Cn1nc(C(=O)NCc2ccc(C#N)cc2)c2c1C(=O)N(CC1(S(=O)(=O)C(C)(C)CNCCO)CC1)CC2 [Example 69, N-(4-Cyanobenzyl)-6-((1-((1-((2-hydroxyethyl)amino)-2-methylpropan-2-yl)sulfonyl)cyclopropyl)methyl)-1-methyl-7-oxo-4,5,6,7-tetrahydro-1H-pyrazolo[3,4-c]pyridine-3-carboxamide] | 0.04
Cn1nc(C(=O)NCc2ccc(C#N)cc2)c2c1C(=O)N(CC1(S(=O)(=O)C(C)(C)CN)CC1)CC2 [Example 70, 6-((1-((1-Amino-2-methylpropan-2-yl)sulfonyl)cyclopropyl)methyl)-N-(4-cyanobenzyl)-1-methyl-7-oxo-4,5,6,7-tetrahydro-1H-pyrazolo[3,4-c]pyridine-3-carboxamide] | 0.037
COC(=O)NCC(C)(C)S(=O)(=O)C1(CN2CCc3c(C(=O)NCc4ccc(C#N)cc4)nn(C)c3C2=O)CC1 [Example 73, Methyl (2-((1-((3-((4-cyanobenzyl)carbamoyl)-1-methyl-7-oxo-1,4,5,7-tetrahydro-6H-pyrazolo[3,4-c]pyridin-6-yl)methyl)cyclopropyl)sulfonyl)-2-methylpropyl)carbamate] | 0.04
Cn1nc(C(=O)NCc2ccc(C#N)cc2)c2c1C(=O)N(CC1(S(=O)(=O)C(C)(C)CNC(=O)CN)CC1)CC2 [Example 74, 6-((1-((1-(2-Aminoacetamido)-2-methylpropan-2-yl)sulfonyl)cyclopropyl)methyl)-N-(4-cyanobenzyl)-1-methyl-7-oxo-4,5,6,7-tetrahydro-1H-pyrazolo[3,4-c]pyridine-3-carboxamide] | 0.065
C[C@@H](N)C(=O)NCC(C)(C)S(=O)(=O)C1(CN2CCc3c(C(=O)NCc4ccc(C#N)cc4)nn(C)c3C2=O)CC1 [Example 75, (R)-6-((1-((1-(2-Aminopropanamido)-2-methylpropan-2-yl)sulfonyl)cyclopropyl)methyl)-N-(4-cyanobenzyl)-1-methyl-7-oxo-4,5,6,7-tetrahydro-1H-pyrazolo[3,4-c]pyridine-3-carboxamide] | 0.133
C[C@H](N)C(=O)NCC(C)(C)S(=O)(=O)C1(CN2CCc3c(C(=O)NCc4ccc(C#N)cc4)nn(C)c3C2=O)CC1 [Example 76, (S)-6-((1-((1-(2-Aminopropanamido)-2-methylpropan-2-yl)sulfonyl)cyclopropyl)methyl)-N-(4-cyanobenzyl)-1-methyl-7-oxo-4,5,6,7-tetrahydro-1H-pyrazolo[3,4-c]pyridine-3-carboxamide] | 0.123
Cn1nc(C(=O)NCc2ccc(C#N)cc2)c2c1C(=O)N(CC1(S(=O)(=O)C(C)(C)CNC(=O)C(C)(C)N)CC1)CC2 [Example 77, 6-((1-((1-(2-Amino-2-methylpropanamido)-2-methylpropan-2-yl)sulfonyl)cyclopropyl)methyl)-N-(4-cyanobenzyl)-1-methyl-7-oxo-4,5,6,7-tetrahydro-1H-pyrazolo[3,4-c]pyridine-3-carboxamide] | 0.142
CN(C)CC(=O)NCC(C)(C)S(=O)(=O)C1(CN2CCc3c(C(=O)NCc4ccc(C#N)cc4)nn(C)c3C2=O)CC1 [Example 78, N-(4-Cyanobenzyl)-6-((1-((1-(2-(dimethylamino)acetamido)-2-methylpropan-2-yl)sulfonyl)cyclopropyl)methyl)-1-methyl-7-oxo-4,5,6,7-tetrahydro-1H-pyrazolo[3,4-c]pyridine-3-carboxamide] | 0.206
Cn1nc(C(=O)NCc2ccc(C#N)cc2)c2c1C(=O)N(CC1(S(=O)(=O)C(C)(C)COC(F)(F)CO)CC1)CC2 [Example 84, N-(4-Cyanobenzyl)-6-((1-((1-(1,1-difluoro-2-hydroxyethoxy)-2-methylpropan-2-yl)sulfonyl)cyclopropyl)methyl)-1-methyl-7-oxo-4,5,6,7-tetrahydro-1H-pyrazolo[3,4-c]pyridine-3-carboxamide] | 0.045
